Results as given in patent US20100284985A1, “Composition” (Danisco A/S, priority 2007, published 2010).

How the values were obtained:
[1] = system: Lactobacilllus farciminis DCS 611; assay: MIC assay, LAE; type: cell-based; conditions: ppm of the active component
Description: (§1) The Minimal Inhibition Concentration Assay (MIC) is a 96 well liquid based assay developed for a semi-automated assessment system and performed essentially as described in (7). […] From an overnight culture […] of each strain was inoculated in one well corresponding to an approximate inoculation density of 10^3-10^4 cells/well. Media used were CASO, MRS and YM (Appendix 1). Strains were incubated at 20° C., 25° C., 37° C. and under aerobic/anaerobic conditions depending on the preferred conditions for the particular strain (Appendix 1). At time zero, after adding the AM, the optical density (O.D.) of the bacterial culture is measured at 620 nm and then again after 24 hours. […] MIC is defined as the lowest concentration of the AM that will inhibit measurable growth. A bacteriostatic effect is defined as the OD620 at 24 h being less than or equal to 20% of the growth control.

[2] = system: Lactobacillus fermentum DCS 573; assay: MIC assay, LAE; type: cell-based
Description: as §1

[3] = system: Leuconostoc mesenteroides ss DCS 512; assay: MIC assay, LAE; type: cell-based
Description: as §1

[4] = system: Leuconostoc spp. DCS 947; assay: MIC assay, LAE; type: cell-based; conditions: ppm of the active component
Description: as §1

[5] = system: Listeria innocua DCS 17; assay: MIC assay, LAE; type: cell-based
Description: as §1

[6] = system: Listeria monocytogenes DCS 489; assay: MIC assay, LAE; type: cell-based
Description: as §1

[7] = system: Listeria monocytogenes DCS 490; assay: MIC assay, LAE; type: cell-based
Description: as §1

[8] = system: Pichia anomala DCS 603; assay: MIC assay, LAE; type: cell-based
Description: as §1

[9] = system: Rhodotorula mucilaginosa H116; assay: MIC assay, LAE; type: cell-based; conditions: ppm of the active component
Description: as §1

[10] = system: Saccharomyces cerevisiae DCS 599; assay: MIC assay, LAE; type: cell-based
Description: as §1

[11] = system: Salmonella typhimurium DCS 218; assay: MIC assay, LAE; type: cell-based; conditions: ppm of the active component
Description: as §1

[12] = system: Salmonella typhimurium DCS 223; assay: MIC assay, LAE; type: cell-based; conditions: ppm of the active component
Description: as §1

[13] = system: Staphylococcus aureus DCS 630; assay: MIC assay, LAE; type: cell-based
Description: as §1

[14] = system: Zygosaccharomyces bailii DCS 538; assay: MIC assay, LAE; type: cell-based
Description: as §1

[15] = system: Lactobacilllus curvatus DCS 609; assay: MIC assay, LAE; type: cell-based, Lactobacillus curvatus; conditions: Latilactobacillus curvatus, DCS609, ppm of the active component
Description: as §1

[16] = system: Lactobacilllus sakei DCS 608; assay: MIC assay, LAE; type: cell-based, Lactobacillus sakei; conditions: Latilactobacillus sakei, DCS608, ppm of the active component
Description: as §1

[17] = system: Bacillus licheniformis DCS 561; assay: FIC checkerboard assay, LAE with Nisaplin; type: cell-based
Description: (§2) The Fractional Inhibition Concentration (FIC) assay is also a 96 well liquid based assay with a checkerboard titration layout (7, 8), one plate for each strain and sets of concentrations. Cultivation media can be seen in Appendix 1. O.D. at 620 nm is read at zero hours (at strain addition) and after a 24-hour incubation period. […] The FICs for the two substances are plotted towards each other in a graph called an isobologram. […] Additionally, the FIC index is then calculated as follows: FICindex=FICA+FICB, if FICindex is lower than 1 there is synergy, if it is higher than one there is antagony and if it is equal to one there is an additive effect.
(§3) FICs were determined for LAE in combination with Nisaplin and Natamax for strains in Table 1A and B.

[18] = system: Brochothrix thermosphacta DCS 780; assay: FIC checkerboard assay, LAE with Nisaplin; type: cell-based
Description: as §2, §3

[19] = system: Listeria monocytogenes DCS 489; assay: FIC checkerboard assay, LAE with Nisaplin; type: cell-based
Description: as §2, §3

[20] = Leuconostoc mesenteroides, SSDCS512, ppm of the active component
[21] = Listeria innocua, DCS17, ppm of the active component
[22] = Listeria monocytogenes, DCS489, ppm of the active component
[23] = Listeria monocytogenes, DCS490, ppm of the active component
[24] = Hansenula anomala, DCS603, ppm of the active component
[25] = Saccharomyces cerevisiae, DCS599, ppm of the active component
[26] = Salmonella enterica, TYPHIMURIUM
[27] = Staphylococcus aureus, DCS630, ppm of the active component
[28] = Zygosaccharomyces bailii, DCS538, ppm of the active component

`CCCCCCCCCCCC(=O)N[C@@H](CCCNC(=N)N)C(=O)OCC.Cl` [LAE, N^α-Lauroyl-L-arginine ethyl ester monohydrochloride] was tested. Which MIC [1] did it give?
The MIC was 49.2 µg/mL.

What about the increased lag phase [1] of the same molecule?
Its increased lag phase is 49.2 ppm.

And the MBC ([2]; DCS573, ppm of the active component)?
The MBC was > 166 µg/mL.

What about the MIC ([2]; Limosilactobacillus reuteri, DCS573, ppm of the active component) of the same molecule?
The MIC was 73.8 µg/mL.

And the increased lag phase ([2]; ppm of the active component)?
The increased lag phase was 73.8 ppm.

What about the MBC [3, 20] of the same molecule?
Its MBC is > 166 µg/mL.

And the MIC [3, 20]?
The MIC was 41 µg/mL.

What about the increased lag phase ([3]; ppm of the active component) of the same molecule?
Its increased lag phase is 32.8 ppm.

And the MBC ([4]; Leuconostoc)?
Its MBC is > 166 µg/mL.

What about the MIC ([4]; Leuconostoc) of the same molecule?
Its MIC is 32.8 µg/mL.

And the increased lag phase [4]?
Its increased lag phase is 32.8 ppm.

What about the MBC [5, 21] of the same molecule?
Its MBC is 21.9 µg/mL.

And the MIC [5, 21]?
Its MIC is 12.1 µg/mL.

What about the increased lag phase ([5]; ppm of the active component) of the same molecule?
The increased lag phase was 5.4 ppm.

What about the MBC [6, 22] of the same molecule?
The MBC was 14.6 µg/mL.

And the MIC [6, 22]?
Its MIC is 12.1 µg/mL.

And the increased lag phase ([6]; ppm of the active component)?
Its increased lag phase is 9.7 ppm.

And the MBC [7, 23]?
Its MBC is 12.2 µg/mL.

What about the MIC [7, 23] of the same molecule?
Its MIC is 12.1 µg/mL.

And the increased lag phase ([7]; ppm of the active component)?
Its increased lag phase is 8.1 ppm.

What about the MBC [8, 24] of the same molecule?
The MBC was 111 µg/mL.

What about the MIC [8, 24] of the same molecule?
Its MIC is 73.8 µg/mL.

And the increased lag phase ([8]; ppm of the active component)?
Its increased lag phase is 32.8 ppm.

And the MBC ([9]; Rhodotorula mucilaginosa)?
The MBC was 6.5 µg/mL.

What about the MIC ([9]; Rhodotorula mucilaginosa) of the same molecule?
Its MIC is 6.5 µg/mL.

And the increased lag phase [9]?
Its increased lag phase is 4.3 ppm.

What about the MBC [10, 25] of the same molecule?
The MBC was 14.6 µg/mL.

What about the MIC [10, 25] of the same molecule?
The MIC was 14.6 µg/mL.

What about the increased lag phase ([10]; ppm of the active component) of the same molecule?
The increased lag phase was 14.6 ppm.

And the MBC [11, 26]?
Its MBC is 49.2 µg/mL.

And the MIC [11, 26]?
The MIC was 32.8 µg/mL.

What about the increased lag phase [11] of the same molecule?
Its increased lag phase is 12.1 ppm.

What about the MBC [12, 26] of the same molecule?
Its MBC is 32.8 µg/mL.

What about the MIC [12, 26] of the same molecule?
The MIC was 21.9 µg/mL.

What about the increased lag phase [12] of the same molecule?
Its increased lag phase is 14.6 ppm.

What about the MBC [13, 27] of the same molecule?
The MBC was 18.3 µg/mL.

What about the MIC [13, 27] of the same molecule?
The MIC was 14.6 µg/mL.

What about the increased lag phase ([13]; ppm of the active component) of the same molecule?
The increased lag phase was 14.6 ppm.

And the MBC [14, 28]?
Its MBC is 6.5 µg/mL.

And the MIC [14, 28]?
Its MIC is 6.5 µg/mL.

And the increased lag phase ([14]; ppm of the active component)?
The increased lag phase was 4.3 ppm.

What about the MBC [15] of the same molecule?
Its MBC is > 166 µg/mL.

What about the MIC [15] of the same molecule?
The MIC was 32.8 µg/mL.

And the MBC [16]?
The MBC was > 166 µg/mL.

And the MIC [16]?
The MIC was 32.8 µg/mL.

And the FICLAE ([17]; Nisaplin 50 ppm + LAE 22.2 ppm)?
The FICLAE was 0.44.

What about the FICLAE ([17]; Nisaplin 130 ppm + LAE 14.8 ppm) of the same molecule?
The FICLAE was 0.30.

And the FICLAE ([17]; Nisaplin 210 ppm + LAE 9.9 ppm)?
Its FICLAE is 0.20.

And the FICLAE ([17]; Nisaplin 250 ppm + LAE 0 ppm)?
Its FICLAE is 0.00.

And the FICLAE ([18]; Nisaplin 50 ppm + LAE 33 ppm)?
Its FICLAE is 0.67.

What about the FICLAE ([18]; Nisaplin 90 ppm + LAE 22 ppm) of the same molecule?
Its FICLAE is 0.44.

What about the FICLAE ([18]; Nisaplin 210 ppm + LAE 0 ppm) of the same molecule?
Its FICLAE is 0.00.

And the FICLAE ([19]; Nisaplin 0 ppm + LAE 50 ppm)?
Its FICLAE is 1.00.

What about the FICLAE ([19]; Nisaplin 50 ppm + LAE 22 ppm) of the same molecule?
The FICLAE was 0.44.

What about the FICLAE ([19]; Nisaplin 90 ppm + LAE 15 ppm) of the same molecule?
The FICLAE was 0.30.

What about the FICLAE ([19]; Nisaplin 130 ppm + LAE 5 ppm) of the same molecule?
Its FICLAE is 0.09.

And the FICLAE ([19]; Nisaplin 170 ppm + LAE 4 ppm)?
Its FICLAE is 0.04.

What about the FICLAE ([19]; Nisaplin 210 ppm + LAE 1 ppm) of the same molecule?
Its FICLAE is 0.02.

And the FICLAE ([19]; Nisaplin 250 ppm + LAE 0 ppm)?
The FICLAE was 0.00.
